Target: T1, IRAK-4 (Homo sapiens, UniProt Q9NWZ3)
T1 sequence (Q9NWZ3 1-460): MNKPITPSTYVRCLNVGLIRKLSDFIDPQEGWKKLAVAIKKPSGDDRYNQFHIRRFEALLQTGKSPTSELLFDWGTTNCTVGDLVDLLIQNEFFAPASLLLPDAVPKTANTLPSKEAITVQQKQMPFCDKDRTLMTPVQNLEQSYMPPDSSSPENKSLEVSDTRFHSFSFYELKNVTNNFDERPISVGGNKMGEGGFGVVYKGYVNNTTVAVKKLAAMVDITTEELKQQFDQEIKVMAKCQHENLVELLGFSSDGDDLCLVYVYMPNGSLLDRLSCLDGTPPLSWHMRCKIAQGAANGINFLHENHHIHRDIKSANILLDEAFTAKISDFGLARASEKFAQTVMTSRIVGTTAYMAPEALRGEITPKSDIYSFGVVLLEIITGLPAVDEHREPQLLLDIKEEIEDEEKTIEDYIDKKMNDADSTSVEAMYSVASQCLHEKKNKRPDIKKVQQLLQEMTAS
Assay: IRAK-4 ELISA, PBMC degradation
Format: cell-based
Set-up: endogenous in cells; host or cells: PBMC
Settings: treated overnight
Procedure, shortened: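 ELISA quantification of cellular IRAK-4 after compound treatment overnight; PBMC were plated at 2×10^6/ml, OCI-Ly10 at 1×10^6/ml.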

| Structure (SMILES) | DC50 [nM] | Dmax [%] | PBMC DC90 |
| --- | --- | --- | --- |
| O=C1CCC(N2C(=O)c3ccc(N4CC(F)(CN5CCC(n6cc7cc(NC(=O)c8cnn9ccc(N%10C[C@H]%11C[C@@H]%10CO%11)nc89)c(OCC8CC8)cc7n6)CC5)C4)cc3C2=O)C(=O)N1 (stereo partly drawn) [Example 239] | 5 to 10 | < 70 | C (C represents a DC90 value ≥25.0 nM and <50 nM) |
| COc1cc2c(cc1N1CC(F)(CN3CCC(n4cc5cc(NC(=O)c6cnn7cccnc67)c(OCC6CC6)cc5n4)CC3)C1)C(=O)N(C1CCC(=O)NC1=O)C2=O (stereo not drawn) [Example 244] | 1 to 5 | 80 to 90 | B (B represents a DC90 value ≥10.0 nM and <25.0 nM) |
| O=C1CCC(N2C(=O)c3ccc(N4CCC5(CCC(CN6CCC(n7cc8cc(NC(=O)c9cnn%10cccnc9%10)c(OCC9CC9)cc8n7)CC6)CC5)CC4)cc3C2=O)C(=O)N1 (stereo not drawn) [Example 247] | 1 to 5 | ≥ 90 | B (B represents a DC90 value ≥10.0 nM and <25.0 nM) |
| C[C@H](Oc1cc2nn(C3CCN(CC4(F)CN(c5ccc6c(c5)C(=O)N(C5CCC(=O)NC5=O)C6=O)C4)CC3)cc2cc1NC(=O)c1cnn2cccnc12)C1CC1 (stereo partly drawn) [Example 264] | 1 to 5 | 70 to 80 | B (B represents a DC90 value ≥10.0 nM and <25.0 nM) |
| CC(C)Oc1cc2c(cc1NC(=O)c1cnn3cccnc13)CN([C@H]1CC[C@H](N3CCN(c4ccc5c(c4)CN(C4CCC(=O)NC4=O)C5=O)CC3)CC1)C2=O (stereo partly drawn) [Example 273, N-(2-((1r,4r)-4-(4-(2-(2,6-dioxopiperidin-3-yl)-1-oxoisoindolin-5-yl)piperazin-1-yl)cyclohexyl)-6-isopropoxy-1-oxoisoindolin-5-yl)pyrazolo[1,5-a]pyrimidine-3-carboxamide] | < 1 | ≥ 90 | A (A represents a DC90 value <10.0 nM) |
| CC(C)Oc1cc2c(cc1NC(=O)c1cnn3cccnc13)CN(C1CCN(C3(C)CN(c4ccc5c(c4)CN(C4CCC(=O)NC4=O)C5=O)C3)CC1)C2=O (stereo not drawn) [Example 275] | < 1 | ≥ 90 | A (A represents a DC90 value <10.0 nM) |
| CC(C)Oc1cc2c(cc1NC(=O)c1cnn3cccnc13)CN([C@H]1CC[C@@H](N3CCN(c4ccc5c(c4)CN(C4CCC(=O)NC4=O)C5=O)CC3)CC1)C2=O (stereo partly drawn) [Example 276] | < 1 | 80 to 90 | A (A represents a DC90 value <10.0 nM) |
| CC(C)Oc1cc2c(cc1NC(=O)c1cnn3cccnc13)CN([C@H]1CC[C@@H](N3CC4(CN(c5ccc6c(c5)CN(C5CCC(=O)NC5=O)C6=O)C4)C3)CC1)C2=O (stereo partly drawn) [Example 277] | < 1 | ≥ 90 | A (A represents a DC90 value <10.0 nM) |
| CC(C)Oc1cc2c(cc1NC(=O)c1cnn3cccnc13)CN([C@H]1CC[C@H](N3CC4(CN(c5ccc6c(c5)CN(C5CCC(=O)NC5=O)C6=O)C4)C3)CC1)C2=O (stereo partly drawn) [Example 284] | < 1 | ≥ 90 | A (A represents a DC90 value <10.0 nM) |
| CC(C)Oc1cc2c(cc1NC(=O)c1cnn3cccnc13)CN(C1CCN(CC3CCN(c4ccc(C(=O)NC5CCC(=O)NC5=O)c(F)c4)CC3)CC1)C2=O (stereo not drawn) [Example 286, N-[2-[1-[[1-[4-[(2,6-dioxo-3-piperidyl)carbamoyl]-3-fluoro-phenyl]-4-piperidyl]methyl]-4-piperidyl]-6-isopropoxy-1-oxo-isoindolin-5-yl]pyrazolo[1,5-a]pyrimidine-3-carboxamide] | 1 to 5 | ≥ 90 | B (B represents a DC90 value ≥10.0 nM and <25.0 nM) |
| O=C1CCC(NC(=O)c2ccc(N3CC(F)(CN4CCC(n5cc6cc(NC(=O)c7cnn8cccnc78)c(OCC7CC7)cc6n5)CC4)C3)cc2F)C(=O)N1 (stereo not drawn) [Example 291] | 1 to 5 | ≥ 90 | B (B represents a DC90 value ≥10.0 nM and <25.0 nM) |
| CC(C)Oc1cc2c(cc1NC(=O)c1cnn3cccnc13)CN(C1CCN(CC3CN(c4ccc(C(=O)NC5CCC(=O)NC5=O)c(F)c4)C3)CC1)C2=O (stereo not drawn) [Example 292] | < 1 | ≥ 90 | A (A represents a DC90 value <10.0 nM) |
| CC(C)Oc1cc2nn(C3CCN(CC4(F)CN(c5ccc(C(=O)NC6CCC(=O)NC6=O)c(F)c5)C4)CC3)cc2cc1NC(=O)c1cnn2cccnc12 (stereo not drawn) [Example 293] | 1 to 5 | ≥ 90 | B (B represents a DC90 value ≥10.0 nM and <25.0 nM) |
| CC(C)Oc1cc2c(cc1NC(=O)c1cnn3cccnc13)CN(C1CCN(CC3(F)CN(c4ccc(C(=O)NC5CCC(=O)NC5=O)c(F)c4)C3)CC1)C2=O (stereo not drawn) [Example 297] | 1 to 5 | ≥ 90 | B (B represents a DC90 value ≥10.0 nM and <25.0 nM) |
| CC(C)Oc1cc2c(cc1NC(=O)c1cnn3ccc(N4CCOCC4)nc13)CN(C1CCC(N(C)C3CN(c4ccc5c(c4)CN(C4CCC(=O)NC4=O)C5=O)C3)CC1)C2=O (stereo not drawn) [Example 315] | 5 to 10 | < 70 | D (D represents a DC90 value ≥50 nM) |
| CC(C)Oc1cc2c(cc1NC(=O)c1cnn3cccnc13)CN(C1CCC(N(C)C3CCN(c4ccc5c(c4)C(=O)N(C4CCC(=O)NC4=O)C5=O)CC3)CC1)C2=O (stereo not drawn) [Example 316] | < 1 | ≥ 90 | A (A represents a DC90 value <10.0 nM) |
| CC(C)Oc1cc2nn([C@H]3CC[C@H](N(C)C4CCN(c5ccc6c(c5)C(=O)N(C5CCC(=O)NC5=O)C6=O)CC4)CC3)cc2cc1NC(=O)c1cnn2cccnc12 (stereo partly drawn) [Example 317] | < 1 | ≥ 90 | A (A represents a DC90 value <10.0 nM) |
| CC(C)Oc1cc2nn([C@H]3CC[C@H](N(C)C4CN(c5ccc6c(c5)C(=O)N(C5CCC(=O)NC5=O)C6=O)C4)CC3)cc2cc1NC(=O)c1cnn2cccnc12 (stereo partly drawn) [Example 318] | < 1 | ≥ 90 | A (A represents a DC90 value <10.0 nM) |
| CCN(C1CN(c2ccc3c(c2)C(=O)N(C2CCC(=O)NC2=O)C3=O)C1)[C@H]1CC[C@H](n2cc3cc(NC(=O)c4cnn5cccnc45)c(OC(C)C)cc3n2)CC1 (stereo partly drawn) [Example 319] | 1 to 5 | 80 to 90 | A (A represents a DC90 value <10.0 nM) |
| CCN(C1CN(c2cccc3c2C(=O)N(C2CCC(=O)NC2=O)C3=O)C1)[C@H]1CC[C@H](n2cc3cc(NC(=O)c4cnn5cccnc45)c(OC(C)C)cc3n2)CC1 (stereo partly drawn) [Example 320] | ≥ 10 | 80 to 90 | D (D represents a DC90 value ≥50 nM) |
| COc1cc(N2CC(N(C)[C@H]3CC[C@H](N4Cc5cc(NC(=O)c6cnn7cccnc67)c(OC(C)C)cc5C4=O)CC3)C2)cc2c1C(=O)N(C1CCC(=O)NC1=O)C2=O (stereo partly drawn) [Example 321] | 1 to 5 | ≥ 90 | A (A represents a DC90 value <10.0 nM) |
| CCN(C1CN(c2ccc(C(=O)NC3CCC(=O)NC3=O)c(F)c2)C1)[C@H]1CC[C@H](n2cc3cc(NC(=O)c4cnn5cccnc45)c(OC(C)C)cc3n2)CC1 (stereo partly drawn) [Example 322] | 1 to 5 | ≥ 90 | A (A represents a DC90 value <10.0 nM) |
| CN(C1CN(c2ccc3c(c2)CN(C2CCC(=O)NC2=O)C3=O)C1)[C@H]1CC[C@H](n2cc3cc(NC(=O)c4cnn5cccnc45)c(OCC4CC4)cc3c2)CC1 (stereo partly drawn) [Example 324] | < 1 | ≥ 90 | A (A represents a DC90 value <10.0 nM) |

Results, then the molecule that gave them:

| DC50 [nM] | Dmax [%] | PBMC DC90 | Structure (SMILES) |
| --- | --- | --- | --- |
| 1 to 5 | 80 to 90 | A (A represents a DC90 value <10.0 nM) | COc1cc(N2CC(F)(CN3CCC(n4cc5cc(NC(=O)c6cnn7cccnc67)c(OCC6CC6)cc5n4)CC3)C2)cc2c1C(=O)N(C1CCC(=O)NC1=O)C2 (stereo not drawn) [Example 242] |
| ≥ 10 | < 70 | D (D represents a DC90 value ≥50 nM) | O=C1CCC(N2C(=O)c3cccc(N4CC(F)(CN5CCC(n6cc7cc(NC(=O)c8cnn9cccnc89)c(OCC8CC8)cc7n6)CC5)C4)c3C2=O)C(=O)N1 (stereo not drawn) [Example 270, N-(6-(cyclopropylmethoxy)-2-(1-((1-(2-(2,6-dioxopiperidin-3-yl)-1,3-dioxoisoindolin-4-yl)-3-fluoroazetidin-3-yl)methyl)piperidin-4-yl)-2H-indazol-5-yl)pyrazolo[1,5-a]pyrimidine-3-carboxamide] |
| 5 to 10 | 80 to 90 | D (D represents a DC90 value ≥50 nM) | CC(C)Oc1cc2nn(C3CCN(CC4(F)CN(c5cccc6c5C(=O)N(C5CCC(=O)NC5=O)C6=O)C4)CC3)cc2cc1NC(=O)c1cnn2cccnc12 (stereo not drawn) [Example 271, N-(2-(1-((1-(2-(2,6-dioxopiperidin-3-yl)-1,3-dioxoisoindolin-4-yl)-3-fluoroazetidin-3-yl)methyl)piperidin-4-yl)-6-isopropoxy-2H-indazol-5-yl)pyrazolo[1,5-a]pyrimidine-3-carboxamide] |
| ≥ 10 | ≥ 90 | D (D represents a DC90 value ≥50 nM) | O=C1CCC(NC(=O)c2ccc(N3CC(F)(CN4CCC(N5Cc6cc(NC(=O)c7cnn8cccnc78)c(OCC7CC7)cc6C5=O)CC4)C3)cc2F)C(=O)N1 (stereo not drawn) [Example 298] |
| < 1 | ≥ 90 | A (A represents a DC90 value <10.0 nM) | CN(C1CCC(n2cc3cc(NC(=O)c4cnn5cccnc45)c(OCC4CC4)cc3n2)CC1)C1CCN(c2ccc3c(c2)C(=O)N(C2CCC(=O)NC2=O)C3=O)CC1 (stereo not drawn) [Example 323] |

From patent US20230099344A1, “COMPOUNDS AND METHODS FOR THE TARGETED DEGRADATION OF IRAK-4” (Arvinas Operations, Inc., priority 2021, published 2023)
